# According to patent publication US12171874B2 (OrphAI Therapeutics Inc., priority 2013, dated 2024):
# “Also recorded” adds a separate entry of the source.
# Columns and labels:
# [1] = system: phosphorylated S6 protein; details: lung tissue concentration
# From the text: In the mouse strain used (C57bl/6), the mouse airway and alveolar epithelial cells have constitutively active (phosphorylated, “p”) S6 protein.
# renal angiomyolipomas = details: oral, up to 2 years, 16 patients; cited from earlier work
# [2] = Determination of rapamycin in lung and blood following oropharyngeal aspiration (OPA) and oral gavage (LC-MS/MS); type: in vivo, male C57BL/6 mice; details: 1 mg/kg; for Blood concentration of rapamycin: OPA, 72 h post-dose
# Procedure: Source (for oral gavage): Rapamune Oral® (Pfizer) for oral administration, Lot No.: MWGT, Expiration: July 2016.
# Animals: Male C57BL/6 mice, approximately 8 weeks of age, from Charles River Laboratories, Inc, Raleigh, NC. Animals were fed Certified Purina Rodent Chow #5002 and were furnished tap water ad libitum. The analysis of each feed batch for nutrient levels and possible contaminants was performed by the supplier, examined by the Study Director, and maintained in the study records. […] Mice were housed (one per cage) in polycarbonate cages with stainless steel bar lids accommodating a water bottle. Cage sizes are approximately 11.5″×7.5″×5″ high (70 sq. in. floor space) for mice. Contact bedding was Sani-Chips hardwood chips (P. J. Murphy Forest Products Co.; Montville, NJ). Mice were quarantined for a period of 5 days before use on a study. A veterinarian or qualified designee examined the animals prior to their release from quarantine. Temperature and relative humidity in RTI animal rooms were continuously monitored, controlled, and recorded using an automated system (Siebe/Barber-Colman Network 8000 System with Revision 4.4.1 for Signal® software [Siebe Environmental Controls (SEC)/Barber-Colman Company; Loves Park, IL]). The target environmental ranges were 64-79° F. (18° C.-26° C.) for temperature and 30-70% relative humidity, with a 12-h light cycle per day. At the end of the in-life phase, the mice were euthanized by overexposure to carbon dioxide. […]
# Dosing: Each animal was weighed prior to dosing to determine the amount of dose to be administered. […] The dose administered to each animal was determined from the weight of the full syringe minus that of the empty syringe. The dosing time was recorded. […]
# The concentrations of standards were arranged so that each standard came from an alternate stock standard. A six-point calibration curve, each made in triplicate, was employed for analyte quantitation. […] The concentration range determined was from 1-2000 ng/mL in blood and 2-2000 ng/mL in lung homogenate. […]
# [3] = 2012 meta-analysis; cited from earlier work
Blood concentration of rapamycin ([2]; individual animal),"Lung concentration of rapamycin ([2]; gavage (Rapamune Oral), 1 h post-dose, individual animal)",Structure (SMILES),Drug in the lung that substantially abrogates mTOR signaling as measured by pS6 [1],Renal angiomyolipoma response (renal angiomyolipomas),Blood concentration of rapamycin ([2]; group),Cancer patients that may experience mild grade (pulmonary) toxicity [3] [%]
<ELOQ,<LOQ,"CO[C@H]1C[C@@H]2CC[C@@H](C)[C@@](O)(O2)C(=O)C(=O)N2CCCC[C@H]2C(=O)O[C@H]([C@H](C)C[C@@H]2CC[C@@H](O)[C@H](OC)C2)CC(=O)[C@H](C)/C=C(\C)[C@@H](O)[C@@H](OC)C(=O)[C@H](C)C[C@H](C)/C=C/C=C/C=C/1C [Rapamycin, (3S,6R,7E,9R,10R,12R,14S,15E,17E,19E,21S,23S,26R,27R,34aS)-9,10,12,13,-14,21,22,23,24,25,26,27,32,33,34,34a-hexadecahydro-9,27-dihydroxy-3-[(1R)-2-[(1S,3R,4R)-4-hydroxy-3-methoxycyclohexyl]-1-methylethyl]-10,21-dimethox-y-6,8,12,14,20,26-hexamethyl-23,27-epoxy-3H-pyrido[2,1-c][1,4]oxaazacyclohentriacontine-1,5,11,28,29(4H,6H,31H)-pentone]",about 70 ng/g,sustained regression,below the limit of quantitation; also recorded: undetectable,
,,CO[C@H]1C[C@@H]2CC[C@@H](C)[C@@](O)(O2)C(=O)C(=O)N2CCCC[C@H]2C(=O)O[C@H]([C@H](C)C[C@@H]2CC[C@@H](OCCO)[C@H](OC)C2)CC(=O)[C@H](C)/C=C(\C)[C@@H](O)[C@@H](OC)C(=O)[C@H](C)C[C@H](C)/C=C/C=C/C=C/1C [everolimus],,,,10
,,CO[C@H]1C[C@@H]2CC[C@@H](C)[C@@](O)(O2)C(=O)C(=O)N2CCCC[C@H]2C(=O)O[C@H]([C@H](C)C[C@@H]2CC[C@@H](OC(=O)C(C)(CO)CO)[C@H](OC)C2)CC(=O)[C@H](C)/C=C(\C)[C@@H](O)[C@@H](OC)C(=O)[C@H](C)C[C@H](C)/C=C/C=C/C=C/1C [temsirolimus],,,,10
